# Where two headings read alike, the source gives them in different places.
# Tests used:
# [1] = system: drug-resistant TNBC cells; test: MTT viability assay, drug-resistant TNBC sublines (not singled out); type: cell-based; conditions: read-out: GI50 dose, doxorubicin-resistant TNBC cells
# Protocol: (§1) Human TNBC MDA-MB-468 and MDA-MB-231, and mouse TNBC 4T1 cells were cultured in the chronic presence (>10 months) of Doxorubicin. The parental, wild-type cells were initially treated with 200 nM Doxorubicin for 2-3 weeks, followed by escalation to 400 nM, 1 μM, and 2 μM doses over a period of 3-4 weeks for each dose till resistance developed and the cells became well adapted to growth in […] of Doxorubicin for their routine culture. In the case of Cisplatin however, the human TNBC MDA-MB-468 and MDA-MB-231 were initially cultured in continuous presence of 1 μM Cisplatin for 3-4 weeks, and the dose was escalated to 1.5 μM and 3 μM over periods of 3-4 weeks for each dose till resistance developed and cells became adapted to routine culture in 3 μM dose. Subsequent, routine maintenance of the resistant cells in the presence of the respective drug was continued and multiple, resistant sublines for each of the TNBC cells were isolated and characterized for their growth inhibitory (GI)50 dose of respective therapeutic by the MTT-based viability assays as below.
# [2] = system: 4T1 TNBC cells, wild type; test: MTT viability assay, parental 4T1; type: cell-based, mouse; conditions: Mus musculus; 72 h; Wild type
# Protocol: (§2) In vitro inhibition of cell growth was assessed by MTT (3-[4, 5-dimethyltiazol-2-yl]-2.5-diphenyl tetrazolium bromide) reagent. Cells (5×10^3) were seeded in a 96-well culture plate and subsequently treated with respective agents at different concentrations as mentioned. Control cells were treated with 0.1% DMSO in culture medium. After treatment, the cells were incubated with 1 mg/ml of MTT reagent at 37° C. for 2-4 hours and then MTT was removed and 50 μL of DMSO was added, followed by colorimetric analysis using a multi-label plate reader at 560 nm (Victor3; PerkinElmer, Wellesley, Mass., USA).
# TNBC cells = test: MTT viability assay, parental TNBC cells (lines not singled out); type: cell-based
# Protocol: as §2
# [3] = system: MDA-MB-468 TNBC cells, wild type; test: MTT viability assay, parental MDA-MB-468; type: cell-based, human; conditions: Homo sapiens, MDA-MB-468; 72 h; Wild type
# Protocol: as §2
# [4] = system: CSC-enriched populations from xenografts of parental and ADR-resistant MDA-MB-231 TNBC cells; test: MTT viability of tumor-derived CSC-enriched cells; type: cell-based, human; conditions: dose-dependent; FIG. 15C
# Protocol: The CSC-enriched cells were then treated with ADR, CFM-4.16, or a combination of both for noted dose and time. The cell viabilities were determined by MTT-based assay as in FIGS. 3A-3C, and plotted relative to the MTT values for the respective untreated controls. The histogram columns in panels B and C represent means of three and four independent experiments, respectively; bars, S.E. α, αα, β, ββ, ^*,**,#,##p=<0.03 relative to respective cells treated with ADR+CFM-4.16.
# The TNBC cells were obtained from tumors derived from parental and drug-resistant cells or from a two-dimensional culture plate with ˜70-80% confluence. The cells were washed twice in 1×PBS and trypsinized following established protocols. […]
# It was next clarified whether and to the extent CFM-4.16 was able to interfere with growth of mammospheres derived from parental and drug-resistant TNBC-cells. […] The growing mammosphere cultures were then exposed to CFM-4.16, and the viabilities of untreated and treated cultures were determined by an MTT-based assay. […]
# [5] = system: MDA-MB-231 TNBC cells, wild type; test: MTT viability assay, parental MDA-MB-231; type: cell-based, human; conditions: Homo sapiens, MDA-MB-231; 72 h; Wild type
# Protocol: as §2
# [6] = system: Adriamycin-resistant (ADR-R) MDA-MB-468 sublines; test: MTT viability assay, ADR-resistant MDA-MB-468 sublines; type: cell-based, human
# Protocol: as §1
# [7] = system: Adriamycin-resistant (ADR-R) MDA-MB-231 sublines; test: MTT viability assay, ADR-resistant MDA-MB-231 sublines; type: cell-based; conditions: Homo sapiens, 72 h, ADR-R Clones 1-6
# Protocol: as §1
# [8] = system: Adriamycin-resistant (ADR-R) 4T1 sublines; test: MTT viability assay, ADR-resistant 4T1 sublines; type: cell-based; conditions: Mus musculus; 72 h; ADR-R Clones 1-6
# Protocol: Human TNBC MDA-MB-468 and MDA-MB-231, and mouse TNBC 4T1 cells were cultured in the chronic presence (>10 months) of Doxorubicin. The parental, wild-type cells were initially treated with 200 nM Doxorubicin for 2-3 weeks, followed by escalation to 400 nM, 1 μM, and 2 μM doses over a period of 3-4 weeks for each dose till resistance developed and the cells became well adapted to growth in 1 μM dose of Doxorubicin for their routine culture. […] Subsequent, routine maintenance of the resistant cells in the presence of the respective drug was continued and multiple, resistant sublines for each of the TNBC cells were isolated and characterized for their growth inhibitory (GI)50 dose of respective therapeutic by the MTT-based viability assays as below.
# as §2
compound,measurement,setting,value
"COc1cccc2c1C(=O)c1c(O)c3c(c(O)c1C2=O)C[C@@](O)(C(=O)CO)C[C@@H]3O[C@H]1C[C@H](N)[C@H](O)[C@H](C)O1 [Adriamycin, Doxorubicin, reference compound]",GI50,[1],≥ 10 µM
same,GI50,[2],~0.1 µM
same,GI50,"TNBC cells; 72 h treatment period, read-out: GI50 doses, both the parental TNBC cell lines",< 0.1 µM
same,GI50,"TNBC cells; read-out: GI50 dose, parental cells",0.02 to 0.1 µM
same,GI50,[3],~0.02 µM
same,viabilities of CSC enriched TNBC cells vs untreated,[4],significant loss of viabilities
same,GI50,[5],< 0.1 µM
same,"GI50 dose higher than wild-type, parental counterparts",[6]; ADR-resistant MDA-MB-468 vs parental,≥ 500 fold
same,GI50,"[6]; Homo sapiens, MDA-MB-468, 72 h, ADR-R Clones 1-6",~10 µM
same,GI50,[7],> 10 µM
same,GI50,[8],> 10 µM

# From patent US10220025B1, “Self-emulsifying formulation of CARP-1 functional mimetics” (Florida A&M University, priority 2016, dated 2019)
